Test results reported in the NIST ThermoML archive (doi:10.1007/s10765-012-1371-1).

Test: xn = mol fraction of the nth substance listed
Settings: 101 kPa, Liquid

CCC(C)Cl (centres undefined) [2-chlorobutane] + COC(C)(C)C
viscosity [mPa·s]
Settings	283.15 K	288.15 K	293.15 K	298.15 K	303.15 K	308.15 K	313.15 K
x1 = 0.0434	0.3916	0.3664	0.3507	0.3353	0.3177	0.3019	0.287
x1 = 0.0928	0.3949	0.3694	0.3536	0.3383	0.3207	0.3048	0.2897
x1 = 0.1824	0.4008	0.3752	0.3591	0.3436	0.3261	0.3099	0.2948
x1 = 0.2774	0.4072	0.3816	0.365	0.3495	0.3319	0.3155	0.3002
x1 = 0.3786	0.4141	0.3883	0.3715	0.3558	0.338	0.3215	0.306
x1 = 0.4751	0.4208	0.3951	0.3779	0.3619	0.3441	0.3273	0.3117
x1 = 0.584	0.4287	0.4029	0.3853	0.3691	0.351	0.334	0.3182
x1 = 0.6819	0.436	0.4101	0.3921	0.3757	0.3575	0.3401	0.3241
x1 = 0.8032	0.4456	0.4195	0.4009	0.3843	0.3657	0.3481	0.3317
x1 = 0.9015	0.4536	0.4274	0.4084	0.3915	0.3727	0.3547	0.3379
x1 = 0.9512	0.458	0.4318	0.4125	0.3954	0.3764	0.3581	0.3411
x1 = 1	0.4631	0.4365	0.4167	0.3993	0.38	0.3615	0.3443
